Measurements published in patent US10487082B2, “S1PR2 antagonists and uses therefor” (DALHOUSIE UNIVERSITY, priority 2015, dated 2019).
“Also recorded” adds a separate entry of the source.

How the values were obtained:
S1PR2 = S1PR2 (Homo sapiens, UniProt O95136); details: cited from earlier work
Fzd4−/− mice = assay: Retinal vasculature in Fzd4−/− mouse model of FEVR (flat-mounted retinas, iso-lectin B4 staining, confocal microscopy); format: in vivo; details: 0.5 mg/kg intraperitoneally every second day from P7 to P25, retinas at P25
Experimental: FIG. 7 illustrates that treatment of Fzd4^−/− mice with the S1PR2 antagonist JTE-013 ameliorates the FEVR phenotype. Fzd4^−/− mice were injected with 0.5 mg/kg JTE-013 intraperitoneally every second day from P7 to P25. Retinas were flat mounted at P25 and the vasculature visualized by confocal microscopy subsequent to staining with iso-lectin B4 AlexaFluor 594.
Fzd4^−/− mice were injected with 0.5 mg/kg JTE-013 intraperitoneally every second day from P7 to P25. Using standard protocols, retinas were flat mounted at P25 and the vasculature visualized by confocal microscopy subsequent to staining with iso-lectin B4 AlexaFluor 594. (Vascular development in the retina and inner ear: control by Norrin and Frizzled-4, a high-affinity ligand-receptor pair. Xu Q, Wang Y, Dabdoub A, Smallwood P M, Williams J, Woods C, Kelley M W, Jiang L, Tasman W, Zhang K, Nathans J. Cell 116, 883-95 (2004).)

Chain of S1PR2 (O95136 whole entry): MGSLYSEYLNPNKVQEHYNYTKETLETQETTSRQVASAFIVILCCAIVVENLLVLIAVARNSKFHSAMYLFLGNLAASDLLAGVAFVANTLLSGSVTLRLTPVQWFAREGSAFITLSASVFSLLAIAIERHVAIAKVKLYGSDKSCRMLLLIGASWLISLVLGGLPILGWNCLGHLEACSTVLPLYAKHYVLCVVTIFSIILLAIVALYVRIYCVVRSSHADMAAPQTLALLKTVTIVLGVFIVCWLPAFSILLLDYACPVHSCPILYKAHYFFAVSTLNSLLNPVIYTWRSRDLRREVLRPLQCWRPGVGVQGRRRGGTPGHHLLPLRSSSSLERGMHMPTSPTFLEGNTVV

SMILES: Cc1nn(C)c2nc(NNC(=O)Nc3cc(Cl)nc(Cl)c3)cc(C(C)C)c12 [JTE-013, 1-(2,6-dichloro-4-pyridyl)-3-[(4-isopropyl-1,3-dimethyl-pyrazolo[3,4-b]pyridin-6-yl)amino]urea]
- affinity for S1PR2 (S1PR2): 18 nM
- specificity for S1PR2 versus other S1PRs (S1PR2): 100 fold
- retinal vascular patterning / FEVR retinal vascularization defects (Fzd4−/− mice): substantial restoration of normal retinal vascular patterning; also recorded: able to ameliorate FEVR retinal vascularization defects
